Reference: patent US20220110902A1, “Methods of treating amyloid-beta peptide diseases” (Ecole Polytechnique Federale de Lausanne, priority 2016, published 2022)
“Also recorded” adds a separate entry of the source.

Experiments:
[1] = test system: GMC101 worms; experiment: Western-blot of amyloid aggregation in GMC101 worms; format: in vivo, C. elegans; conditions: for Aβ aggregation (proteotoxic stress): GMC101, day 1 of adulthood, dox 15 μg/mL, NR 1 mM, AZD 300 nM
Procedure: C. elegans: Worms were lysed by sonication with RIPA buffer containing protease and phosphatase inhibitors (Roche), and analyzed by SDS-PAGE and western blot. The concentration of extracted protein was determined by using the Bio-Rad Protein Assay. Proteins were detected using the following antibodies: anti-β-actin (Sigma), anti-tubulin (Santa Cruz), atp-5, ucr-1 (Oxphos cocktail, Abcam), anti-β-Amyloid, 1-16 (6E10) (BioLegend). In addition to the housekeeping proteins, loading was monitored by Ponceau Red to ensure a homogeneous loading. Pixel intensity was quantified by using ImageJ software. Each immunoblot experiment was repeated at least twice using 3 biological replicates each containing approximately 1000 worms.
(§1) During the assays, animals were exposed to Myriocin (dissolved in DMSO) from the egg stage on plates seeded with live HT115 E. coli bacteria. Control plates seeded with the same bacteria were prepared with the corresponding concentrations of DMSO. The day of the experiment (day 1 of adulthood, 3 days after hatching), the GMC101 population was shifted to 25° C. in order to induce the amyloid deposition in the body wall muscle. ˜1000 worms were used for western blotting assays.
(§2) Worms were lysed by sonication with RIPA buffer containing protease and phosphatase inhibitors (Roche), and analyzed by western blot. The concentration of extracted protein was determined by the Bio-Rad Protein Assay. Proteins were detected using the following antibodies: anti-β-actin (Sigma) and anti-β-Amyloid (BioLegend). In addition to the housekeeping proteins, loading was monitored by Ponceau Red to ensure a homogeneous loading. The immunoblot experiment employed 3 biological replicates, each containing approximately 1000 worms.
as §2, with “extracted proteins” for “extracted protein”, “3 biologicals” for “3 biological”
The GMC101 worms were recovered 24 h after being shifted at 25° C. The population was treated with UA at two different concentrations, ie 20 uM and 50 uM.

[2] = test system: GMC101 worms; experiment: Worm phenotypic assays in GMC101: mobility, paralysis and death score; format: in vivo, C. elegans; conditions: for fitness/healthspan and lifespan (mobility, paralysis, death): GMC101, mobility from day 1 of adulthood, paralysis and death at day 8, dox 15 μg/mL, AZD 300 nM
Procedure: Doxycycline was obtained from Sigma-Aldrich and dissolved in water. For experiments, a final concentration of 15 μg/mL was used. Olaparib (AZD2281) was dissolved in DMSO to experimental concentrations of 300 nM. Nicotinamide Riboside triflate (NR) was custom synthesized by Novalix (www.novalix-pharma.com/) and dissolved in water, and used at a final concentration of 1 mM. Compounds were added just before pouring the plates. For phenotyping experiments, parental F0 L4 worms were allowed to reach adulthood and lay eggs on the treatment plates. The deriving F1 worms were therefore exposed to compounds during the full life from eggs until death. For RNA analysis experiments, synchronized L1 worms were exposed to the compounds until harvest. To ensure a permanent exposure to the compound, plates were changed twice a week.
Mobility: C. elegans movement analysis was performed as described, starting from day 1 of adulthood, using the Movement Tracker software. The experiments were repeated at least twice.
Paralysis and death score: 5 L4 worms per condition were allowed to reach adulthood and lay eggs on the treatment plates. 45 to 60 deriving F1 worms per condition were manually scored for paralysis after poking, as already described. Worms that were unable to respond to any, repeated stimulation, were scored as dead. Results are representative of the data obtained in at least three independent experiments.
as §1
C. elegans movement analysis was performed as described (Mouchiroud et al., 2016), using the Movement Tracker software. ˜50 adult worms were used per condition for movement assays.
To score for paralysis and death, 50 worms per condition were manually scored after poking as described (McCool et al., 2012; Florez-McClure et al., 2007). Worms that were unable to respond to repeated stimulation were scored as dead.
as §1, with “the compound UA” for “Myriocin (dissolved in DMSO)”, “from” for “from the”, “DMSO (0.1%).” for “DMSO.”, “˜50 adult” for “˜1000”, “per conditions.” for “for western blotting assays.”
C. elegans movement analysis was performed as described in (Mouchiroud et al., 2016), using the Movement Tracker software within a period of 4 days.

Compound	accumulation of amyloid-β aggregates ([1]; GMC101, Day 1 of adulthood, Myriocin 5 uM and 10 uM)	paralysis and death (survival) ([2]; GMC101, day 4 of adulthood, Myriocin 10 uM)	spontaneous movement (mobility) ([2]; GMC101, period of 4 days, Myriocin 10 uM)	Aβ aggregation (proteotoxic stress) [1]	fitness/healthspan and lifespan (mobility, paralysis, death) ([2]; NR 1 mM)	health- and life-span upon sir-2.1 RNAi ([2]; GMC101 fed with sir-2.1 RNAi, NR 1 mM)	dependence of motility and Aβ clearance benefits on atfs-1 ([2]; GMC101 upon atfs-1 RNAi feeding)	dependence of health-, lifespan and proteostasis benefits on dct-1 ([2]; GMC101 upon dct-1 RNAi feeding)
CCCCCCC(=O)CCCCCC/C=C/C[C@@H](O)[C@H](O)[C@@](N)(CO)C(=O)O [Myriocin, (E,2S,3R,4R)-2-amino-3,4-dihydroxy-2-(hydroxymethyl)-14-oxoicos-6-enoic acid]	dose-dependently decreased; also recorded: dose-dependent reduction	decreased both paralysis and death; also recorded: improves the paralysis score and survival	increased the mobility; also recorded: increase in spontaneous movement	–	–	–	–	–
NC(=O)c1ccc[n+]([C@@H]2O[C@H](CO)[C@@H](O)[C@H]2O)c1 [NR, Nicotinamide Riboside triflate]	–	–	–	reduced proteotoxic stress	improved healthspan and lifespan	still significantly rescued health- and life-span	required	required
O=C(c1cc(Cc2n[nH]c(=O)c3ccccc23)ccc1F)N1CCN(C(=O)C2CC2)CC1 [AZD, Olaparib, reference compound]	–	–	–	reduced proteotoxic stress	improved healthspan and lifespan	–	–	–
